Experiments:
[1] = tested on: mice
[2] = tested on: Fusobacterium varium; assay: Susceptibility of Fusobacterium varium to antimicrobial agents; format: cell-based
Source text: The susceptibility to Fusobacterium varium in antimicrobial agents was examined.

Molecule	colonic lesions after enema ([1]; mice, twenty-four hours after enema)	lesion after injection into the rectum ([1]; mouse, injected into the rectum)	resistance of Fusobacterium varium to antimicrobial agent [2]
CCCC(=O)O [butyric acid]	colonic ulcers with crypt abscesses, inflammatory cell infiltration and apoptotic changes	a lesion similar to ulcerative colitis was induced	
CC[C@H]1OC(=O)[C@H](C)[C@@H](O[C@H]2C[C@@](C)(OC)[C@@H](O)[C@H](C)O2)[C@H](C)[C@@H](O[C@@H]2O[C@H](C)C[C@H](N(C)C)[C@H]2O)[C@](C)(OC)C[C@@H](C)C(=O)[C@H](C)[C@@H](O)[C@]1(C)O [clarithromycin]			resistant
CC[C@H]1OC(=O)[C@H](C)[C@@H](O[C@H]2C[C@@](C)(OC)[C@@H](O)[C@H](C)O2)[C@H](C)[C@@H](O[C@@H]2O[C@H](C)C[C@H](N(C)C)[C@H]2O)[C@](C)(O)C[C@@H](C)C(=O)[C@H](C)[C@@H](O)[C@]1(C)O [erythromycin]			resistant
[H]/N=C(/N)N[C@H]1[C@H](O)[C@@H](O)[C@H](O[C@@H]2O[C@@H](C)[C@](O)(C=O)[C@H]2O[C@@H]2O[C@@H](CO)[C@H](O)[C@@H](O)[C@@H]2NC)[C@@H](N/C(N)=N\[H])[C@@H]1O [streptomycin]			resistant
gentamycin			resistant

— US7700106B2, “Therapeutic agent for ulcerative colitis” (priority 2001, dated 2010)
